{
  "source": "BindingDB's records for doi:10.1016/j.bmcl.2009.07.083",
  "about": "(Bristol-Myers Squibb, 2009)",
  "target": "Potassium voltage-gated channel subfamily A member 5 (Homo sapiens, UniProt P22460)",
  "sequence (P22460 whole entry)": "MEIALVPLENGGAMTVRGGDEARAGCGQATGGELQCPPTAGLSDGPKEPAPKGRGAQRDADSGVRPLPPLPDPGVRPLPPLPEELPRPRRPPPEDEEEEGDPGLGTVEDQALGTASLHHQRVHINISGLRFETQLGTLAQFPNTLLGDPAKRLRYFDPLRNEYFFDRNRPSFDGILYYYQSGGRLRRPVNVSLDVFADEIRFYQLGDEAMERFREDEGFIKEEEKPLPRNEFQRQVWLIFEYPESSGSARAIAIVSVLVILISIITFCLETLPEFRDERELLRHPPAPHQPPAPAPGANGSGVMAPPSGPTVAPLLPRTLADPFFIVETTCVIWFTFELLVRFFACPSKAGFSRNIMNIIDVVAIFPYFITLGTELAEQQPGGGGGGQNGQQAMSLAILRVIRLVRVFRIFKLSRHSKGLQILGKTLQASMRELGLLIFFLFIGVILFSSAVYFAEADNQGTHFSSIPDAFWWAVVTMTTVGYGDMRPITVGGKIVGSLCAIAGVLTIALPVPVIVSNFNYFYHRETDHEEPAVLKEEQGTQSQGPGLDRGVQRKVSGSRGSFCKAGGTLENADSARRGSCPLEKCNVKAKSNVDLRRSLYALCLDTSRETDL",
  "experiment": "Inhibition of human Kv1.5 channel expressed in mouse L929 cells",
  "data": [
    {"smiles": "CC1=Nc2ccnn2C(c2ccc(Cl)c(Cl)c2)C1c1ncc(-c2ccccc2)o1", "note": "(centres undefined) [2-(7-(3,4-dichlorophenyl)-5-methyl-4,7-dihydropyrazolo[1,5-a]pyrimidin-6-yl)-5-phenyloxazole]", "values": [
      {"measurement": "IC50", "result": "> 1000", "unit": "nM"}
    ]},
    {"smiles": "CC(=O)Nc1ccc2c(c1)nc(C1C(C)=Nc3ccnn3C1c1ccc(Cl)c(Cl)c1)n2C", "note": "(centres undefined) [N-(2-(7-(3,4-dichlorophenyl)-5-methyl-4,7-dihydropyrazolo[1,5-a]pyrimidin-6-yl)-1-methyl-1H-benzo[d]imidazol-5-yl)acetamide]", "values": [
      {"measurement": "IC50", "result": "> 1000", "unit": "nM"}
    ]},
    {"smiles": "CC1=Nc2ccnn2C(c2ccc(Cl)c(Cl)c2)C1c1nc2cc(S(=O)(=O)Nc3ccccc3)ccc2n1C", "note": "(centres undefined) [2-(7-(3,4-dichlorophenyl)-5-methyl-4,7-dihydropyrazolo[1,5-a]pyrimidin-6-yl)-1-methyl-N-phenyl-1H-benzo[d]imidazole-5-sulfonamide]", "values": [
      {"measurement": "IC50", "result": "> 1000", "unit": "nM"}
    ]},
    {"smiles": "CC1=Nc2ccnn2C(c2ccc(Cl)c(Cl)c2)C1c1nc2cc(S(C)(=O)=O)ccc2n1C", "note": "(centres undefined) [7-(3,4-dichlorophenyl)-5-methyl-6-(1-methyl-5-(methylsulfonyl)-1H-benzo[d]imidazol-2-yl)-4,7-dihydropyrazolo[1,5-a]pyrimidine]", "values": [
      {"measurement": "IC50", "result": "> 1000", "unit": "nM"}
    ]},
    {"smiles": "CC1=Nc2ccnn2C(c2ccc(Cl)c(Cl)c2)C1c1nc2c(C)cccc2[nH]1", "note": "(centres undefined) [7-(3,4-dichlorophenyl)-5-methyl-6-(7-methyl-1H-benzo[d]imidazol-2-yl)-4,7-dihydropyrazolo[1,5-a]pyrimidine]", "values": [
      {"measurement": "IC50", "result": 150, "unit": "nM"}
    ]},
    {"smiles": "CC1=Nc2ccnn2C(c2ccc(Cl)c(Cl)c2)C1c1nc2cc(C)ccc2n1C", "note": "(centres undefined) [7-(3,4-dichlorophenyl)-6-(1,5-dimethyl-1H-benzo[d]imidazol-2-yl)-5-methyl-4,7-dihydropyrazolo[1,5-a]pyrimidine]", "values": [
      {"measurement": "IC50", "result": 200, "unit": "nM"}
    ]},
    {"smiles": "CC1=Nc2ccnn2C(c2ccc(Cl)c(Cl)c2)C1c1nnc(-c2ccccc2)o1", "note": "(centres undefined) [2-(7-(3,4-dichlorophenyl)-5-methyl-4,7-dihydropyrazolo[1,5-a]pyrimidin-6-yl)-5-phenyl-1,3,4-oxadiazole]", "values": [
      {"measurement": "IC50", "result": "> 1000", "unit": "nM"}
    ]},
    {"smiles": "CC1=Nc2ccnn2C(c2ccc(Cl)c(Cl)c2)C1c1nc2cccc(F)c2n1C", "note": "(centres undefined) [7-(3,4-dichlorophenyl)-6-(7-fluoro-1-methyl-1H-benzo[d]imidazol-2-yl)-5-methyl-4,7-dihydropyrazolo[1,5-a]pyrimidine]", "values": [
      {"measurement": "IC50", "result": 150, "unit": "nM"}
    ]},
    {"smiles": "CCCCc1nnc(C2C(C)=Nc3ccnn3C2c2ccc(Cl)c(Cl)c2)o1", "note": "(centres undefined) [2-butyl-5-(7-(3,4-dichlorophenyl)-5-methyl-4,7-dihydropyrazolo[1,5-a]pyrimidin-6-yl)-1,3,4-oxadiazole]", "values": [
      {"measurement": "IC50", "result": "> 1000", "unit": "nM"}
    ]}
  ]
}
